Measurements as given in the CheMixHub viscosity set.
Several values for one entry are separate records, joined by “and”; a condition that tells them apart may be missing. Equal entries are not always repeated.

CCCCn1cc[n+](C)c1.O=S(=O)([N-]S(=O)(=O)C(F)(F)F)C(F)(F)F
Conditions	viscosity
293.15 K, 100 kPa	61.47 mPa·s
293.15 K, 101 kPa	64.6 mPa·s and 62.91 mPa·s and 65.11 mPa·s
293.15 K, 101.3 kPa	63.1 mPa·s
293.3 K, 100 kPa	62.66 mPa·s
293.61 K, 100 kPa	61.82 mPa·s
293.91 K, 100 kPa	60.98 mPa·s
294.21 K, 100 kPa	60.17 mPa·s
294.52 K, 100 kPa	59.36 mPa·s
294.82 K, 100 kPa	58.58 mPa·s
295.12 K, 100 kPa	57.8 mPa·s
295.42 K, 100 kPa	57.04 mPa·s
295.73 K, 100 kPa	56.29 mPa·s
296.03 K, 100 kPa	55.56 mPa·s
296.33 K, 100 kPa	54.84 mPa·s
296.64 K, 100 kPa	54.13 mPa·s
296.94 K, 100 kPa	53.43 mPa·s
297.24 K, 100 kPa	52.75 mPa·s
297.55 K, 100 kPa	52.07 mPa·s
297.85 K, 100 kPa	51.41 mPa·s
298 K, 100 kPa	49.74 mPa·s
298 K, 101 kPa	50.4 mPa·s
298.15 K, 101 kPa	50.29 mPa·s and 51.73 mPa·s and 45.3 mPa·s
298.15 K, 101.3 kPa	50.53 mPa·s
298.45 K, 100 kPa	50.12 mPa·s
298.76 K, 100 kPa	49.49 mPa·s
299.06 K, 100 kPa	48.87 mPa·s
299.36 K, 100 kPa	48.26 mPa·s
299.67 K, 100 kPa	47.66 mPa·s
299.97 K, 100 kPa	47.08 mPa·s
300.27 K, 100 kPa	46.5 mPa·s
300.58 K, 100 kPa	45.93 mPa·s
300.88 K, 100 kPa	45.37 mPa·s
301.18 K, 100 kPa	44.82 mPa·s
301.48 K, 100 kPa	44.27 mPa·s
301.79 K, 100 kPa	43.74 mPa·s
302.09 K, 100 kPa	43.22 mPa·s
302.39 K, 100 kPa	42.7 mPa·s
302.7 K, 100 kPa	42.19 mPa·s
303 K, 100 kPa	41.69 mPa·s
303.15 K, 100 kPa	40.54 mPa·s and 39.95 mPa·s
303.15 K, 101 kPa	40.77 mPa·s and 41.8 mPa·s
303.61 K, 100 kPa	40.71 mPa·s
303.91 K, 100 kPa	40.23 mPa·s
304.21 K, 100 kPa	39.76 mPa·s
304.52 K, 100 kPa	39.3 mPa·s
304.82 K, 100 kPa	38.85 mPa·s
305.12 K, 100 kPa	38.4 mPa·s
305.42 K, 100 kPa	37.96 mPa·s
305.73 K, 100 kPa	37.52 mPa·s
306.03 K, 100 kPa	37.09 mPa·s
306.33 K, 100 kPa	36.67 mPa·s
306.64 K, 100 kPa	36.25 mPa·s
306.94 K, 100 kPa	35.85 mPa·s
307.24 K, 100 kPa	35.44 mPa·s
307.55 K, 100 kPa	35.04 mPa·s
307.85 K, 100 kPa	34.65 mPa·s
308.15 K, 101 kPa	34.3 mPa·s
308.15 K, 101.3 kPa	33.95 mPa·s
308.76 K, 100 kPa	33.51 mPa·s
309.06 K, 100 kPa	33.14 mPa·s
309.36 K, 100 kPa	32.78 mPa·s
309.67 K, 100 kPa	32.42 mPa·s
309.97 K, 100 kPa	32.07 mPa·s
310.27 K, 100 kPa	31.72 mPa·s
310.58 K, 100 kPa	31.38 mPa·s
310.88 K, 100 kPa	31.04 mPa·s
311.18 K, 100 kPa	30.71 mPa·s
311.48 K, 100 kPa	30.38 mPa·s
311.79 K, 100 kPa	30.05 mPa·s
312.09 K, 100 kPa	29.73 mPa·s
312.39 K, 100 kPa	29.42 mPa·s
312.7 K, 100 kPa	29.11 mPa·s
313 K, 100 kPa	28.8 mPa·s
313.15 K, 100 kPa	28 mPa·s
313.15 K, 101 kPa	28.06 mPa·s
313.15 K, 101.3 kPa	28.39 mPa·s
313.2 K, 101.33 kPa	27.26 mPa·s
313.61 K, 100 kPa	28.2 mPa·s
313.91 K, 100 kPa	27.91 mPa·s
314.21 K, 100 kPa	27.62 mPa·s
314.52 K, 100 kPa	27.33 mPa·s
314.82 K, 100 kPa	27.05 mPa·s
315.12 K, 100 kPa	26.77 mPa·s
315.42 K, 100 kPa	26.49 mPa·s
315.73 K, 100 kPa	26.22 mPa·s
316.03 K, 100 kPa	25.95 mPa·s
316.33 K, 100 kPa	25.69 mPa·s
316.64 K, 100 kPa	25.43 mPa·s
316.94 K, 100 kPa	25.17 mPa·s
317.24 K, 100 kPa	24.92 mPa·s
317.55 K, 100 kPa	24.67 mPa·s
318.15 K, 100 kPa	23.75 mPa·s and 24.18 mPa·s
318.76 K, 100 kPa	23.7 mPa·s
319.06 K, 100 kPa	23.47 mPa·s
319.36 K, 100 kPa	23.23 mPa·s
319.67 K, 100 kPa	23 mPa·s
319.97 K, 100 kPa	22.78 mPa·s
320.27 K, 100 kPa	22.56 mPa·s
320.58 K, 100 kPa	22.34 mPa·s
320.88 K, 100 kPa	22.12 mPa·s
321.18 K, 100 kPa	21.9 mPa·s
321.48 K, 100 kPa	21.69 mPa·s
321.79 K, 100 kPa	21.48 mPa·s
322.09 K, 100 kPa	21.28 mPa·s
322.39 K, 100 kPa	21.07 mPa·s

COC(=O)CC(=O)OC
Conditions	viscosity [mPa·s]
303.15 K, 101 kPa	1.804

COc1ccccc1O
101 kPa
Conditions	viscosity [mPa·s]
303.15 K	4.45
308.15 K	4.138

FC(F)C(F)(F)OCC(F)(F)C(F)(F)C(F)(F)C(F)F
101 kPa
Conditions	viscosity [mPa·s]
298.15 K	2.5
308.15 K	2.12
318.15 K	1.65
323.15 K	1.52

Ic1ccccc1
viscosity [mPa·s]
Conditions	293.15 K	298.15 K	308.15 K	318.15 K	323.15 K
101 kPa	–	1.513	1.318	1.162	1.083
101.33 kPa	1.736	–	–	–	–

O
Conditions	viscosity
293.15 K, 100 kPa	0.994 mPa·s and 0.991 mPa·s
295 K, 101.3 kPa	0.975 mPa·s
295.15 K, 101 kPa	0.955 mPa·s and 0.9548 mPa·s
295.65 K, 100.9 kPa	0.9432 mPa·s
297.15 K, 101 kPa	0.9111 mPa·s
298.15 K, 100 kPa	0.884 mPa·s and 0.901 mPa·s
298.15 K, 101.3 kPa	0.876 mPa·s
298.15 K, 101.33 kPa	0.918 mPa·s
299.15 K, 101 kPa	0.8705 mPa·s
300.15 K, 101 kPa	0.797 mPa·s
300.65 K, 100.9 kPa	0.8417 mPa·s
301.15 K, 101 kPa	0.8327 mPa·s
302.15 K, 101 kPa	0.917 mPa·s
303.15 K, 100 kPa	0.796 mPa·s and 0.81 mPa·s
305.15 K, 101 kPa	0.816 mPa·s and 0.717 mPa·s
305.65 K, 100.9 kPa	0.7567 mPa·s
307.15 K, 101 kPa	0.734 mPa·s
308.15 K, 101.3 kPa	0.716 mPa·s and 0.708 mPa·s and 0.717 mPa·s
309.15 K, 101 kPa	0.7052 mPa·s
310.65 K, 100.9 kPa	0.6848 mPa·s
311.15 K, 101 kPa	0.6833 mPa·s and 0.6783 mPa·s
313.15 K, 100 kPa	0.662 mPa·s and 0.6579 mPa·s and 0.66 mPa·s
313.15 K, 101.33 kPa	0.5631 mPa·s and 0.658 mPa·s
315.15 K, 101 kPa	0.6291 mPa·s
316.15 K, 101 kPa	0.6189 mPa·s
317.15 K, 101 kPa	0.6067 mPa·s
318.15 K, 101.3 kPa	0.594 mPa·s and 0.589 mPa·s and 0.592 mPa·s
318.15 K, 101.33 kPa	0.6 mPa·s and 0.6 mPa·s
319.15 K, 101 kPa	0.5856 mPa·s
320.15 K, 101 kPa	0.5748 mPa·s
320.65 K, 100.9 kPa	0.5706 mPa·s
321.15 K, 101 kPa	0.5656 mPa·s
322.9 K, 101 kPa	0.5516 mPa·s
323.15 K, 100 kPa	0.567 mPa·s and 0.566 mPa·s
323.15 K, 101 kPa	0.56 mPa·s and 0.5829 mPa·s and 0.5538 mPa·s
